Values quoted from earlier work in patent US12127976B2, “Eye-mountable therapeutic devices, and associated systems and methods” (Twenty Twenty Therapeutics LLC, priority 2018, dated 2024).
Where a name gives a salt, the structure may show the parent alone.

Legend:
[1] = after topical administration; formulated as salts
[2] = in aqueous humor

| estimated half-life [2] [h] | Structure (SMILES) | time at which the maximum effect can be detected [1] |
| --- | --- | --- |
|  | CC(C)NCC(O)COc1ccc(CCOCC2CC2)cc1 (stereo not drawn) [betaxolol] | about 2 hours |
| ~2.8 | O=C(O)CCC/C=C\C[C@@H]1[C@@H](CC[C@@H](O)CCc2ccccc2)[C@H](O)C[C@@H]1O [latanoprost acid] |  |
|  | CC(C)(C)NC[C@H](O)COc1nsnc1N1CCOCC1 [timolol maleate] | about 2 hours |
